Literature values, collected in patent US7449194B2, “Antimicrobial body covering articles” (priority 2002, dated 2008).

Conditions: in water; 21° C.

## [O][Cl+][O-] [chlorine dioxide]
  partition coefficient: 40
